In patent US5140010A, “Stabilized aqueous formulations of thymopentin” (Immunobiology Research Institute, priority 1991, dated 1992):
Where two headings read alike, the source gives them in different places. No end group written: not given here.

How the values were obtained:
[1] = stabilizing effect of other amino acids upon thymopentin in aqueous formulation
Protocol: To the peptide solution is added a sufficient amount of glycine to stabilize the solution.

[2] = immunostimulation in laboratory animals, injectable aqueous formulation; format: in vivo; settings: injectable aqueous formulation prepared immediately prior to use
Protocol: (§1) In experiments with thymopentin, it was observed that the optimal doses of thymopentin in an injectable aqueous formulation for immunostimulation in laboratory animals was about 1 μg/kg of body weight. For laboratory use, these dosages were prepared immediately prior to use.

[3] = human clinical research, clinical pharmacological result; format: in vivo; settings: patients
Protocol: as §1

Row | stabilizing effect upon thymopentin [1] | Compound | also measured
1 | do not exert the stabilizing effect | C[C@H](N)C(=O)O [alanine] | –
2 | do not exert the stabilizing effect | N=C(N)NCCC[C@H](N)C(=O)O [arginine] | –
3 | do not exert the stabilizing effect | N[C@@H](CC(=O)O)C(=O)O [aspartic acid] | –
4 | do not exert the stabilizing effect | O=C(O)[C@@H]1CCCN1 [proline] | –

Second part, the compound before the results:

Row | Compound | stabilizing effect upon thymopentin [1] | also measured
5 | N[C@@H](CCC(=O)O)C(=O)O [glutamic acid] | – | stabilizing effect upon thymopentin ([1]; amino acid in place of glycine): do not exert the stabilizing effect
6 | N[C@@H](Cc1c[nH]cn1)C(=O)O [histidine] | do not exert the stabilizing effect | –
7 | NCCCC[C@H](N)C(=O)O [lysine] | do not exert the stabilizing effect | –
8 | N[C@@H](Cc1c[nH]c2ccccc12)C(=O)O [tryptophan] | do not exert the stabilizing effect | –
9 | N[C@@H](Cc1ccc(O)cc1)C(=O)O [tyrosine] | do not exert the stabilizing effect | –
10 | RKDVY [thymopentin] | – | optimal dose for immunostimulation [2]: about 1 μg/kg of body weight; dose required to produce a clinical pharmacological result [3]: ≥ 1 mg/kg body weight
